Results reported in PubChem BioAssay (NCI).
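Step 1: Grow cells in 96-well plates. Step 2: Expose to compound for 48 hours at 5 concentrations. Step 3: Interpolate endpoints linearly; if unreached, use highest concentration. At the GI50, growth is halved. TGI: concentration producing complete growth inhibition.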

Assays:
Test in all cases: inhibition of tumour cell growth, NCI panel, 48 h
NCI-H23 lung = system: NCI-H23 lung
NCI-H460 lung = system: NCI-H460 lung
NCI-H522 lung = system: NCI-H522 lung
NCI/ADR-RES ovarian = system: NCI/ADR-RES ovarian
OVCAR-3 ovarian = system: OVCAR-3 ovarian
OVCAR-4 ovarian = system: OVCAR-4 ovarian
OVCAR-5 ovarian = system: OVCAR-5 ovarian
OVCAR-8 ovarian = system: OVCAR-8 ovarian
PC-3 prostate = system: PC-3 prostate
RPMI-8226 leukemia = system: RPMI-8226 leukemia
RXF 393 renal = system: RXF 393 renal
SF-268 CNS = system: SF-268 CNS
SF-295 CNS = system: SF-295 CNS
SF-539 CNS = system: SF-539 CNS
SK-MEL-2 melanoma = system: SK-MEL-2 melanoma
SK-MEL-28 melanoma = system: SK-MEL-28 melanoma
SK-MEL-5 melanoma = system: SK-MEL-5 melanoma
SK-OV-3 ovarian = system: SK-OV-3 ovarian
SN12C renal = system: SN12C renal
SNB-19 CNS = system: SNB-19 CNS
SNB-75 CNS = system: SNB-75 CNS
SR leukemia = system: SR leukemia
SW-620 colon = system: SW-620 colon
T-47D breast = system: T-47D breast
TK-10 renal = system: TK-10 renal
U251 CNS = system: U251 CNS
UACC-257 melanoma = system: UACC-257 melanoma
UACC-62 melanoma = system: UACC-62 melanoma
UO-31 renal = system: UO-31 renal

CCSC1=CC(=O)c2ccccc2C1=O
GI50 (NCI-H23 lung): 9.05 µM
TGI (NCI-H23 lung): 26.6 µM
GI50 (NCI-H460 lung): 20.5 µM
TGI (NCI-H460 lung): 46.8 µM
GI50 (NCI-H522 lung): 0.821 µM
TGI (NCI-H522 lung): 2.39 µM
GI50 (NCI/ADR-RES ovarian): 2.37 µM
TGI (NCI/ADR-RES ovarian): 7.39 µM
GI50 (OVCAR-3 ovarian): 1.46 µM
TGI (OVCAR-3 ovarian): 2.81 µM
GI50 (OVCAR-4 ovarian): 0.959 µM
TGI (OVCAR-4 ovarian): 2.37 µM
GI50 (OVCAR-5 ovarian): 16.9 µM
TGI (OVCAR-5 ovarian): 32.5 µM
GI50 (OVCAR-8 ovarian): 1.75 µM
TGI (OVCAR-8 ovarian): 3.8 µM
GI50 (PC-3 prostate): 5.84 µM
TGI (PC-3 prostate): 18.5 µM
GI50 (RPMI-8226 leukemia): 1.49 µM
TGI (RPMI-8226 leukemia): 5.65 µM
GI50 (RXF 393 renal): 2.09 µM
TGI (RXF 393 renal): 4.54 µM
GI50 (SF-268 CNS): 4.98 µM
TGI (SF-268 CNS): 17.1 µM
GI50 (SF-295 CNS): 15.3 µM
TGI (SF-295 CNS): 30.7 µM
GI50 (SF-539 CNS): 12.7 µM
TGI (SF-539 CNS): 28.2 µM
GI50 (SK-MEL-2 melanoma): 6.48 µM
TGI (SK-MEL-2 melanoma): 15.9 µM
GI50 (SK-MEL-28 melanoma): 14.4 µM
TGI (SK-MEL-28 melanoma): 28.9 µM
GI50 (SK-MEL-5 melanoma): 7.11 µM
TGI (SK-MEL-5 melanoma): 20.3 µM
GI50 (SK-OV-3 ovarian): 18.1 µM
TGI (SK-OV-3 ovarian): 32 µM
GI50 (SN12C renal): 14.5 µM
TGI (SN12C renal): 28.6 µM
GI50 (SNB-19 CNS): 16.8 µM
TGI (SNB-19 CNS): 40.6 µM
GI50 (SNB-75 CNS): 14.8 µM
TGI (SNB-75 CNS): 29.7 µM
GI50 (SR leukemia): 2.57 µM
TGI (SR leukemia): 6.8 µM
GI50 (SW-620 colon): 1.56 µM
TGI (SW-620 colon): 3.42 µM
GI50 (T-47D breast): 0.318 µM
TGI (T-47D breast): 0.959 µM
GI50 (TK-10 renal): 2.5 µM
TGI (TK-10 renal): 4.65 µM
GI50 (U251 CNS): 5.81 µM
TGI (U251 CNS): 16.5 µM
GI50 (UACC-257 melanoma): 1.6 µM
TGI (UACC-257 melanoma): 3.89 µM
GI50 (UACC-62 melanoma): 4.79 µM
TGI (UACC-62 melanoma): 17.2 µM
GI50 (UO-31 renal): 1.28 µM
TGI (UO-31 renal): 4.06 µM
